In experiment [1] the test system is human prostate cancer cell line, PC3. Nature of the experiment: Trypan blue cell viability and viable cell count, PC3. Conditions: vardenafil 5 μM, EGCG 10 μM added after 2 hours, 96 hours. The class given is cell-based. How it is done:
A human prostate cancer cell line, PC3, was subcultured in an RPMI 1640 medium supplemented with 10% fetal calf serum (FCS) at 37° C. under vapor-saturated 5% CO2 conditions. The cells were cultured in the logarithmic growth phase. The RPMI 1640 medium used in the culture was prepared by suspending 10.4 g of an RPMI 1640 medium, 2.38 g of HEPES, 0.5 vial of Penicillin G Potassium for Injection 200000 Unit, 0.1 vial of Streptomycin Sulfate for Injection 1 g, and 2.0 g of NaHCO3 in 1 L of ultrapure water, followed by filter sterilization. Subsequently, the RPMI 1640 medium was supplemented with fetal calf serum (FCS) and was used in cell culture. A trypan blue staining solution was prepared by suspending trypan blue in PBS at a concentration of 1% and was used in investigation of the anti-cancer activity of a combination of EGCG and vardenafil by trypan blue assay. The PBS used was prepared by dissolving 8.0 g of NaCl, 0.2 g of KCl, 1.15 g of Na2HPO4, and 0.2 g of KH2PO4 in 1 L of ultrapure water, followed by autoclave sterilization. […] After 10 minutes, the number of the cells was counted with a hemocytometer. Unstained cells were deemed as viable cells, and the cell viability was determined as a ratio of the number of unstained cells in trypan blue staining to the total number of cells. […]

For experiment [2], the system named is human acute myeloid leukemia cell line, HL60. Nature of the experiment: Trypan blue cell viability and viable cell count, HL60. To be noted: vardenafil 5 μM, EGCG 5 μM added after 3 hours, 96 hours. The class given is cell-based. How it is done:
A human multiple myeloma cell line, U266, was subcultured in an RPMI 1640 medium (NISSUI PHARMACEUTICAL Co. LTD., Tokyo) supplemented with 10% fetal calf serum (FCS) (BIOLOGICAL INDUSTRIES) at 37° C. under vapor-saturated 5% CO2 conditions. The cells were cultured in the logarithmic growth phase. A human acute myeloid leukemia cell line, HL60, was subcultured in an RPMI 1640 medium supplemented with 10% fetal calf serum (FCS) at 37° C. under vapor-saturated 5% CO2 conditions. The cells were cultured in the logarithmic growth phase. […]
The plate was returned to the incubator immediately after the addition of EGCG, followed by culturing for 96 hours. […] After 10 minutes, the number of the cells was counted with a hemocytometer (Becton, Dickinson and Company). Unstained cells were deemed as viable cells, and the cell viability was determined as a ratio of the number of unstained cells in trypan blue staining to the total number of cells. […]

In the case of (−)-epigallocatechin-3-O-gallate [EGCG], the “cell viability (cell-killing activity)” value in experiment [1] and in experiment [2] was “any cytotoxicity was not observed” each time.

These data come from patent publication US20160000750A1, “COMBINATION OF EGCG OR METHYLATED EGCG AND A PDE INHIBITOR” (KYUSHU UNIVERSITY, NATIONAL UNIVERSITY CORPORATION, priority 2010, published 2016).
